Source: patent EP2829536A1, “4-Nitro-5-dichloromethylpyrazol derivatives for the treatment of infectious diseases” (priority 2013, dated 2015)
Entries after “also recorded” stand apart in the source; their conditions may differ. Where two headings read alike, the source gives them in different places.

Legend:
[1] = tested on: M. tuberculosis H37Rv; assay: Minimal inhibitory concentration by resazurin microtiter assay (REMA); assay type: cell-based; details: Mycobacterium tuberculosis, 168 h, 7 days incubation, read-out: (MIC) against M. tuberculosis H37Rv
[2] = tested on: L929 cell line; assay: MTT assay, acute toxic effect (24 h); assay type: cell-based; details: Mus musculus, L929, 24 h; 1 day (acute toxic effect)
[3] = in vivo; details: female, C57/BL6, mouse; for bioavailability: F (bioavailability)
From the text: (§1) Mice were weighed and checked according to the protocols and observation data sheets that were requested. Animals were followed for weight loss, apparent good health (bristled hair and wounded skin) and behaviour (signs of aggressiveness or isolation). Animals: Young adult (6-8 weeks old) female C57/BL6 mice, 20 mice for acute oral toxicity testing and 81 mice for PK experiment were used. The animals were nulliparous and non-pregnant weighing 20 ±1.5 g each. They were maintained in their cages provided with a standard laboratory rodent diet and unlimited supply of drinking water and were allowed to acclimatize to the laboratory conditions for seven days before starting the experiments. The temperature in the experimental animal room was kept at 22°C ± 3°C and the relative humidity was 50 ± 20 %. Lighting was artificial with the sequence 12 hours light and 12 hours dark. Substance formulation for in vivo model: Doses were prepared in 5% DMSO in sterile water for oral dosing through oral gavage at a dose volume of 0.3 ml, and in 5% DMSO in PBS, pH 7.4 for IV bolus injection via tail vein at a dose volume 0.1 ml.
(§2) The animals were divided into one IV group (27 mice), 2 oral groups (24 mice each), control IV group (3 mice) and control oral group (3 mice). The IV group and one oral group were dosed with 12.5 mg/kg and the other oral group was dosed with 25 mg/kg, while the control groups received the vehicle. All blood samples were collected at 15 and 30 min and 1, 2, 4, 6, 8, and 24 h after oral dosing, and at 5, 15, and 30 min and 1, 2, 4, 6, 8, and 24 h following intravenous administration. The blood was collected from the control groups at 24 h. Mice were euthanized with isoflurane and a 0.3 mL aliquot of blood was collected via terminal bleed from three mice at each time point. Blood samples were collected in heparin as anticoagulant and plasma was harvested by centrifugation at 10,000 rpm for 2 minutes. Plasma samples were kept at -80 °C until analysis.

[4] = tested on: M. bovis BCG; assay: microbe, parasite or virus in culture; assay type: cell-based; details: Mycobacterium tuberculosis variant bovis BCG
[5] = Hepatic microsomal stability; assay type: in vitro ADME, mice
[6] = tested on: L929 cell line; assay: MTT assay, effect on proliferation (5 days); assay type: cell-based; details: Mus musculus, L929, 120 h
[7] = female, C57/BL6, mouse, in vivo; for F (bioavailability): po
From the text: as §1, §2

[8] = mouse, in vivo
[9] = tested on: M. bovis BCG; assay type: cell-based
[10] = tested on: PtK2 cells; assay: Effect on cell morphology / endoplasmic reticulum by immunocytochemistry (ICC); assay type: cell-based, rat kangaroo; details: for morphological effect / ER stress: PtK2 cells, overnight
Method: Cell lines and media: Cells were grown at 37°C and 5% CO2 in the following media supplemented with 10 % FBS(Gibco): • L-929 cells (mouse connective tissue fibroblast: Dulbecco's modified Eagle's medium (DMEM), Lonza • PtK2 cells (rat kangaroo kidney epithelial cells): Minimum Essential Medium (MEM) medium, supplemented with 1 % non-essential amino acids and 1 % glutamax, Invitrogen.
The effects of the tested compounds on cell proliferation and the acute toxic effects were assayed in vitro on L929 cell line. The metabolic activity was measured by means of (MTT, (3-(4,5-Dimethylthiazol-2-yl)-2,5-diphenyltetrazolium bromide) cell survival colorimetric assay. Effect on proliferation: 60 µl of serial dilutions of the test compounds were added to 120 µl aliquots of a cell suspension (50,000 cells/ml) in 96-well microplates then incubated 5 days at 37°C and 5% CO2. 20 µl MTT dye were added to a final concentration of 0.5 mg/ml. After 2 h the precipitate of formazan crystals was centrifuged, and the supernatant discarded. After washing with PBS, the precipitate was dissolved in 100 µl of acidified propanol. The plates were stirred for 20 minutes and the optical density of the resulting color was measured at 590 nm. Acute toxic effect: It was investigated by plating 120 µl aliquots of a cell suspension (100,000-200,000 cells/ml) in 96-well microplates. The cells were incubated at 37°C and 5% CO2 and allowed to grow for two days to stop the cell propagation. Then 60 µl of serial dilutions of the test compounds were added and incubated for further 24h. Then the MTT assay was performed as described before. Results were expressed as the percentage of cellular viability in comparison to cells that were treated only with the vehicle. The IC50 values were determined as the concentrations at which cells developed 50% of the absorbance of untreated control cells as estimated from the dose-response curves of two parallel experiments. Immunofluorescence staining: The effects of substances on the phenotypical changes of cell shape and adhesion were investigatedin the potoroo (PtK2) cells after staining of the nucleus and the endoplasmic reticulum (ER). PtK2 cells were grown on cover slips in 4-well plates. semi-confluent cells were treated with test compounds and the plates were incubated over the night. The cells were fixed with cold methanol /acetone (1:1) for 10 min. Then the cells were washed with PBS and the primary antibody (anti GRP-94, thermoscientific) was added and incubated for 45 min and washed with PBS. Secondary antibody (Alexaflour goat anti-rat 488, Invitrogen) was then added to the cells and incubated for additional 45 min. Cells were washed with PBS and Cover slips were mounted in anti-fade mounting medium with DAPI (Invitrogen). Images were taken with a CCD camera attached to a fluorescence microscope.
The effects of substances on the phenotypical changes of cell shape and adhesion were investigated by the technique of immunocytochemistry (ICC). The endoplasmic reticulum (ER) was investigated upon treatment of the potoroo cells (PtK2) cells with/without test compounds.
PtK2 cells were grown on cover slips in 4-well plates. semi-confluent cells were treated with test compounds and the plates were incubated over the night. The cells were fixed with cold methanol /acetone for 10 min. Then the cells were washed with PBS and the primary antibody (anti GRP-94, thermoscientific) was added and incubated for 45 min and washed with PBS. […]

[11] = Acute oral toxicity in mice; details: for No. of dead mice: 5 mice, 14 days; for % Cumulative of dead mice: Reed-Muench method
[12] = tested on: H37Rv Pasteur M. tuberculosis strain; assay: Effectivity in mice infected with M. tuberculosis (bacillary load in lung and spleen); assay type: in vivo; details: for p (Lungs) / p (Spleen): vs sham
Method: Lx079 as well as two other components, Lx059 which is 10% DMSO in PBS buffer and Lx069 which is a combination of ethambutol (0.8 mg/ml) and myxopyronine (0.2 mg/ml), were tested for drug effectivity in mice. Two controls were included in the study (sham, non treated; and treated with Isoniazide (INH, 25 mg/kg).
The animals were infected at time point 0 with M. tuberculosis through an airborne infection apparatus (Glas-col Inc., Terre Haute, IN, USA) for infection with a low dose of H37Rv Pasteur M. tuberculosis strain. Nebulization provided an approximate uptake of 20-50 bacilli by mice lungs. The treatments and controls results were processed blindly. The experiment was run including 10 C57BL/6 mice per group. A volume of 0.2mL of each treatment was administered orally every day for 5 days, on week 2 post infection.
Mice were euthanized on week 3 with isoflurane (inhalation excess), and lung and spleen samples removed to and mechanically disrupted in order to obtain tissue homogenates to be plated cultured in Becton Dickinson 7H11 Middlebrook agar (Bennex Ltd, Shannon, Ireland) and incubated at 37 °C. Viable bacteria (Colony Forming Units, CFUs) were counted four weeks after, data being recorded as the log of the number of CFUs recovered per organ. The results of the different groups were represented graphically, compared and evaluated for statistically significant differences (non parametric comparison between each candidate and each control, Mann Whitney test), with the differences being considered significant at P≤0.05 (Graphpad software).
The effect on the bacillary load of each candidate results have been logarithmically represented as CFU/mL in the graphs attached. The lung and spleen results of each candidate and controls evaluated have been represented together (as box and whiskers, 5-95 percentiles plotted) and also per candidate with sham (results of each mouse and median and standard deviation plotted). Statistically significant differences (p<0.05) are marked with * if existing between the evaluated group and sham.

[13] = dose group Lx079-1 (dose not given)
[14] = dose group Lx079-2 (dose not given)
[15] = dose group Lx079-3 (dose not given)
[16] = dose group Lx079-4 (dose not given)
[17] = dose group Lx079-5 (dose not given)
[18] = dose group Lx079-6 (dose not given)

For CNCCOc1nn(-c2c(Cl)cc(Cl)cc2Cl)c(C(Cl)Cl)c1[N+](=O)[O-].Cl [LX079, 2-((5-(Dichloromethyl)-4-nitro-1-(2,4,6-trichlorophenyl)-1H-pyrazol-3-yl)oxy)-N-methylethanaminium chloride], which MIC [1] is on record?
Its MIC is 0.18 µg/mL.

What about the IC50 [2] of the same compound?
Its IC50 is 5.5 µg/mL.

What about the AUC ([3]; iv, 12.5 mg/kg) of the same compound?
The AUC was 530 ± 30 ng·h/mL.

And the C0 ([3]; iv, 12.5 mg/kg)?
The C0 was 660 ± 70 ng/mL.

What about the clearance ([3]; iv, 12.5 mg/kg) of the same compound?
The clearance was 394 mL/min/kg.

And the half-life ([3]; iv, 12.5 mg/kg)?
The half-life was 25.8 ± 16.2 min.

What about the AUC ([3]; po, 12.5 mg/kg) of the same compound?
The AUC was 150 ± 20 ng·h/mL.

What about the bioavailability ([3]; po, 12.5 mg/kg) of the same compound?
The bioavailability was 27.6 ± 2.46%.

And the AUC ([3]; po, 25 mg/kg)?
Its AUC is 350 ± 70 ng·h/mL.

What about the bioavailability ([3]; po, 25 mg/kg) of the same compound?
Its bioavailability is 32.7 ± 7.72%.

And the MIC [4]?
Its MIC is 0.6 µg/mL.

And the “t1/2 (in vitro)” value ([5]; 1 µM, mice microsomes 0.5 mg/mL, NADPH, 37 °C)?
Its value is 5.937 ± 2.36 min.

What about the half-life at 1 µM ([5]; mouse, pooled liver microsomes, pH 7.4, 1 µM, mice microsomes 0.5 mg/mL, NADPH, 37 °C, read-out: t1/2 (in vitro)) of the same compound?
Its half-life at 1 µM is 5.94 ± 2.36 min.

And the microsomal CLint at 1 µM ([5]; mouse, pooled mouse liver microsomes, pH 7.4, mice microsomes, corrected for binding to microsomes, read-out: CLint, inc)?
Its microsomal CLint at 1 µM is 2820 ± 1120 µL/min/mg.

What about the “CLint (hepatic intrinsic clearance)” value ([5]; scaled up from the in vitro t1/2, SMW: standard mouse weight) of the same compound?
Its value is 221.81± 88.23 ml/min/SMW.

And the IC50 [6]?
Its IC50 is 2.2 µg/mL.

What about the C0 ([7]; iv, 12.5 mg/kg) of the same compound?
The C0 was 660 ± 70 ng/mL.

What about the CL ([7]; iv, 12.5 mg/kg) of the same compound?
Its CL is 394 ± 20.3 mL/min/kg.

What about the “K (elimination rate constant)” value ([7]; iv, 12.5 mg/kg) of the same compound?
Its value is 1.79 ± 0.44.

And the t1/2 ([7]; iv, 12.5 mg/kg)?
The t1/2 was 25.8 min.

What about the “time in which the plasma concentration was exceeding the in vitro MIC (T > MIC)” value ([7]; iv, 12.5 mg/kg) of the same compound?
Its value is “less than 1 hour”.

What about the “F (bioavailability)” value ([7]; 12.5 mg/kg) of the same compound?
The value was 27.583 ± 2.457%.

And the “F (bioavailability)” value ([7]; 25 mg/kg)?
Its value is 32.662 ± 7.715%.

And the “microscopic examination of liver, spleen, lungs, and kidneys” value [8]?
Its value is “No pathological abnormalities were detected”.

What about the “decrease of log CFU” value ([9]; 2 µg/ml, 72 hours, in comparison to the untreated controls) of the same compound?
Its value is “around 2 log CFU”.

What about the “intracellular activity against M. bovis BCG” value ([9]; infected macrophage model, Fig. 1) of the same compound?
The value was “significant intracellular activity”.

And the “morphological effect / ER stress” value ([10]; 5µg/ml)?
Its value is “did not produce morphological abnormalities”.

And the “morphological effect / ER stress” value ([10]; 6.6 µg/ml)?
The value was “induced massive ER stress”.

And the “morphological changes of the treated cells after immunofluorescence staining” value ([10]; concentration 25 times higher than the MIC)?
The value was “no morphological changes”.

What about the “No. of dead mice” value ([11]; 62.5 mg/kg single oral dose) of the same compound?
The value was 0.

And the “% Cumulative of dead mice” value ([11]; 62.5 mg/kg single oral dose)?
The value was 0%.

And the “No. of dead mice” value ([11]; 125 mg/kg single oral dose)?
Its value is 2.

And the “% Cumulative of dead mice” value ([11]; 125 mg/kg single oral dose)?
The value was 22%.

What about the “No. of dead mice” value ([11]; 250 mg/kg single oral dose) of the same compound?
The value was 1.

What about the “% Cumulative of dead mice” value ([11]; 250 mg/kg single oral dose) of the same compound?
The value was 42.85%.

What about the LD50 at 14 days ([11]; female, C57/BL6, mouse, in vivo, po) of the same compound?
Its LD50 at 14 days is > 250 mg/kg.

And the “effect on the bacillary load in lungs and spleen compared to sham” value ([12]; C57BL/6 mice, oral, every day for 5 days on week 2 post infection)?
The value was “decrease the bacillary load in both in lungs and spleen; also recorded: clear positive inhibitory effect on the survival of the TB pathogen”.

What about the “p (Lungs)” value [12, 13] of the same compound?
The value was 0.0032.

And the “p (Spleen)” value [12, 13]?
The value was 0.0009.

And the “p (Lungs)” value [12, 14]?
Its value is 0.0002.

What about the “p (Spleen)” value [12, 14] of the same compound?
The value was 0.0343.

What about the “p (Lungs)” value [12, 15] of the same compound?
Its value is 0.0010.

And the “p (Spleen)” value [12, 15]?
Its value is 0.0002.

And the “p (Lungs)” value [12, 16]?
Its value is 0.0004.

What about the “p (Spleen)” value [12, 16] of the same compound?
Its value is 0.0117.

And the “p (Lungs)” value [12, 17]?
Its value is 0.0002.

And the “p (Spleen)” value [12, 17]?
Its value is 0.0164.

What about the “p (Lungs)” value [12, 18] of the same compound?
The value was 0.0002.

And the “p (Spleen)” value [12, 18]?
The value was 0.0031.

Which results are given for CNCCOc1nn(-c2c(Cl)cc(C(F)(F)F)cc2Cl)c(C(Cl)Cl)c1[N+](=O)[O-].Cl [Lx088, 2-((1-(2,6-Dichloro-4-(trifluoromethyl)phenyl)-5-(dichloromethyl)-4-nitro-1H-pyrazol-3-yl)oxy)-N-methylethanaminium chloride]?
MIC [4]: 0.781 µg/mL; morphological effect / ER stress ([10]; 6.6 µg/ml): produced less ER stress; morphological effect / ER stress ([10]; 13.3 µg/ml): induced massive ER stress

For CCNCCOc1nn(-c2c(Cl)cc(Cl)cc2Cl)c(C(Cl)Cl)c1[N+](=O)[O-].Cl [Lx089, 2-((5-(Dichloromethyl)-4-nitro-1-(2,4,6-trichlorophenyl)-1H-pyrazol-3-yl)oxy)-N-ethylethanaminium chloride], which MIC [4] is on record?
The MIC was 0.781 µg/mL.
